Values of other authors as cited in patent publication US20070027116A1, “Therapeutic phosphonate derivatives” (priority 2003, published 2007).

Details: after oral or intravenous administration; background statement

COc1c(C)c2c(c(O)c1C/C=C(\C)CCC(=O)OCCN1CCOCC1)C(=O)OC2 [Mycophenolate mofetil]
drug cleared by glucuronidation and excreted in the urine: over 90%
